Test [1] relates to laser-induced choroidal neovascularization (CNV). Briefly: Mouse laser-induced CNV, prevention. The note with it: single ivt injection.
From the text: METHODS. CNV was generated by laser-induced rupture of Bruch's membrane. […] A hand-held cover slip was applied to the cornea and used as a contact lens to aid visualization of the fundus. Three to four retinal burns were placed in randomly assigned eye (right or left eye for each mouse) using the Alcon 532 nm EyeLite laser with a slit lamp delivery system. The laser burns were used to generate a rupture in Bruch's membrane, which was indicated ophthalmoscopically by the formation of a bubble under the retina. Only mice with laser burns that produced three bubbles per eye were included in the study. Burns were typically placed at the 3, 6, 9 or 12 o'clock positions in the posterior pole of the retina, avoiding the branch retinal arteries and veins.
Each mouse was randomly assigned into one of the following treatment groups: noninjected controls, sham-injected controls, vehicle-injected mice, or one of three Compound-injected groups. Control mice received laser photocoagulation in both eyes, where one eye received a sham injection, i.e. a pars plana needle puncture. For intravitreal-injected animals, one laser-treated eye received a 2 or 5 μl intravitreal injection of 0.1%-3% of a RTKi or vehicle. For prevention studies, the intravitreal injection was performed immediately after laser photocoagulation. […] At 14 days post-laser, all mice were anesthetized and systemically perfused with fluorescein-labeled dextran. Eyes were then harvested and prepared as choroidal flat mounts with the RPE side oriented towards the observer. All choroidal flat mounts were examined using a fluorescent microscope. Digital images of the CNV were captured, where the CNV was identified as areas of hyperfluorescence within the pigmented background. Computerized image analysis was used to delineate and measure the two dimensional area of the hyperfluorescent CNV per lesion (μm^2) for the outcome measurement. The median CNV area/burn per mouse per treatment group or the mean CNV area/burn per treatment group was used for statistical analysis depending on the normality of data distribution; P<0.05 was considered significant.
Test [2] concerns VEGF-induced retinal vascular permeability. Briefly: VEGF-induced retinal vascular permeability in the rat, intravitreal delivery. In kind it is in vivo. To be noted: for Efficacy (0.1%) / Efficacy (1%): inhibition of VEGF-induced RVP vs vehicle-injected controls, *P<0.05; for Efficacy (0.1%): single ivt injection of 0.1% suspension; for Efficacy (1%): single ivt injection of 1% suspension; for ED50 (nmole) / ED50 (μg) / Potency: rat VEGF-induced RVP; for ED50 (nmole) / ED50 (μg): dose-response, single ivt injection; for Potency: relative to reference standard, * = equipotent, 95% CL encompass 1.0. The procedure:
METHODS: Adult Sprague-Dawley rats were anesthetized with intramuscular ketamine/xylazine and their pupils dilated with topical cycloplegics. […] Ten μl of each compound was intravitreally injected in each treatment eye (n=5˜6 animals per group). Three days following first intravitreal injection, all animals received an intravitreal injection of 10 μl 500 ng hr VEGF in both eyes. Twenty-four hours post-injection of VEGF, intravenous infusion of 3% Evans blue dye was performed in all animals, where 50 mg/kg of Evans blue dye was injected via the lateral tail vein during general anesthesia. After the dye had circulated for 90 minutes, the rats were euthanized. The rats were then systemically perfused with balanced salt solution, and then both eyes of each rat were immediately enucleated and the retinas harvested using a surgical microscope. After measurement of the retinal wet weight, the Evans blue dye was extracted by placing the retina in a 0.2 ml formamide (Sigma) and then the homogenized and ultracentrifuged. Blood samples were centrifuged and the plasma diluted 100 fold in formamide. For both retina and plasma samples, 60 μl of supernatant was used to measure the Evans blue dye absorbance (ABS) with at 620/740 nm. The blood-retinal barrier breakdown and subsequent retinal vascular permeability as measured by dye absorbance were calculated as means+/−s.e.m. of net ABS/wet weight/plasma ABS. One way ANOVA was used to determine an overall difference between treatment means. And a test or Man-Whitney rank sum test was performed for a pair-wise comparison between treatment groups, where P<0.05 was considered significant.

The subject of test [3] is bovine retinal endothelial cells (BRECs). Description: VEGF-induced proliferation of bovine retinal endothelial cells (BrdU ELISA). It counts as cell-based. To be noted: for EC50: Bos taurus, Endothelial cell, read-out: VEGF ind BREC prolif EC50; for activity against VEGF-induced proliferation: in words, compared to Compounds I-VII. The procedure: METHODS. […] After another 22-24 hours the cells are treated with or without 50 ng/ml VEGF media and the test compounds in the 1% FBS media. After 30 hours BrdU is then added for the final 16 hours of the incubation. All cells are then fixed and assayed with a colorimetric BrdU ELISA kit.

The subject of test [4] is preretinal neovascularization. Description: Rat oxygen-induced retinopathy (OIR) model, prevention. To be noted: for ED50 (nmole) / ED50 (μg) / Potency: Rat OIR Prevention; for ED50 (nmole) / ED50 (μg): dose-response, single ivt injection; for Potency: relative to reference RTKi (=1); for Efficacy (0.1%) Median-value / Efficacy (1%) Median-value: rat OIR prevention, vs vehicle, *P<0.05; for Efficacy (0.1%) Median-value: single ivt injection of 0.1% suspension; for Efficacy (1%) Median-value: single ivt injection of 1% suspension. It counts as in vivo. The text has this: (§1) METHODS: Pregnant Sprague-Dawley rats were received at 14 days gestation and subsequently gave birth on Day 22±1 of gestation. Immediately following parturition, pups were pooled and randomized into separate litters (n=17 pups/litter), placed into separate shoebox cages inside oxygen delivery chamber, and subjected to an oxygen-exposure profile from Day 0-14 postpartum. Litters were then placed into room air from Day 14/0 through Day 14/6 (days 14-20 postpartum). For prevention studies, each pup was randomly assigned into various treatment groups on Day 14/0. For those randomized into an injection treatment group: one eye received a 5 μl intravitreal injection of between 0.01%-1% of a RTKi and the contralateral eye received a 5 μl intravitreal injection of vehicle. At Day 14/6 (20 days postpartum), all animals were euthanized. For regression studies, each pup was randomly assigned as an oxygen-exposed control or into various treatment groups on […]. For those randomized into an injection treatment group: one eye received a 5 μl intravitreal injection of between 0.01%-1% RTKi and the contralateral eye received a 5 μl intravitreal injection of vehicle. At Day 14/7 (21 days postpartum), all animals were euthanized. Immediately following euthanasia, retinas from all rat pups were harvested, fixed in 10% neutral buffered formalin for 24 hours, subjected to ADPase staining, and fixed onto slides as whole mounts. Digital images were acquired from each retinal flat mount that was adequately prepared. Computerized image analysis was used to obtain a NV clockhour score from each readable sample. Each clockhour out of 12 total per retina was assessed for the presence or absence of preretinal NV. Statistical comparisons using median scores for NV clockhours from each treatment group were utilized in nonparametric analyses. Each noninjected pup represented one NV score by taking the average value of both eyes and was used in comparisons against each dosage group. Because the pups were randomly assigned and no difference was observed between oxygen-exposed control pups from all litters, the NV scores were combined for all treatment groups. P≦0.05 was considered statistically significant.

The subject of test [5] is preretinal neovascularization. Briefly: Rat oxygen-induced retinopathy (OIR) model, regression. The note with it: for ED50 (nmole) / ED50 (μg): dose-response, single ivt injection; for Potency: relative to reference RTKi (=1). In kind it is in vivo.
From the text: as §1

Test [6] has as its target T1, KDR (VEGFR2) kinase (Homo sapiens, UniProt P35968).
T1 construct: purchased Cell Signaling Technology
Briefly: KDR HTRF kinase assay (KinEASE-TK). In kind it is biochemical. The note with it: for IC50: HTRF enzyme assay, KDR (human VEGFR2); for activity against KDR: in words, compared to Compounds I-VII. As for the experimental part:
METHODS. A 7-point HTRF (Homogeneous Time Resolved Fluorescence) kinase assays were performed using a Biomek 3000 Robotic Workstation in a 96-well plate format to determine IC50 values for the test compounds for KDR (VEGFR2) kinase using KinEASE-TK kit from CisBio. This is a general kit for tyrosine kinases including KDR kinase. The KDR kinase was purchased from Cell Signaling Technology. The assay is run in two steps. The phosphorylation of the biotin-tagged generic peptide substrate ([…]) is initiated by the addition of ATP ([…]) in the presence of KDR kinase (5 ng in […] reaction mixture) in step 1 and the reaction is stopped after 30 min incubation at room temperature by the addition of a mixture containing two HTRF detection reagents and EDTA in step 2. The substrate, enzyme, and ATP dilutions were made with the buffer provided by CisBio. Compound dilutions were made either in 5% DMSO or 10:10, (DMSO:Ethanol) to prepare 4× working stock solutions. The HTRF detection reagents were an antibody to phosphotyrosine, labeled with Eu(K) (the HTRF donor), and a streptavidin-XL665 (the HTRF acceptor).

In test [7] the test system is best-corrected visual acuity (BCVA). To be noted: intravitreal, 4 week intervals, Phase III trials; cited from earlier work.
[8] abbreviates: 20 μg/1.0%, * significant vs vehicle-injected controls.
Setting [9] is: 50 ng/ml VEGF, BrdU incorporation.

Like-named read-outs stand apart in the source and are kept apart here.

T1 sequence (P35968 20-1356): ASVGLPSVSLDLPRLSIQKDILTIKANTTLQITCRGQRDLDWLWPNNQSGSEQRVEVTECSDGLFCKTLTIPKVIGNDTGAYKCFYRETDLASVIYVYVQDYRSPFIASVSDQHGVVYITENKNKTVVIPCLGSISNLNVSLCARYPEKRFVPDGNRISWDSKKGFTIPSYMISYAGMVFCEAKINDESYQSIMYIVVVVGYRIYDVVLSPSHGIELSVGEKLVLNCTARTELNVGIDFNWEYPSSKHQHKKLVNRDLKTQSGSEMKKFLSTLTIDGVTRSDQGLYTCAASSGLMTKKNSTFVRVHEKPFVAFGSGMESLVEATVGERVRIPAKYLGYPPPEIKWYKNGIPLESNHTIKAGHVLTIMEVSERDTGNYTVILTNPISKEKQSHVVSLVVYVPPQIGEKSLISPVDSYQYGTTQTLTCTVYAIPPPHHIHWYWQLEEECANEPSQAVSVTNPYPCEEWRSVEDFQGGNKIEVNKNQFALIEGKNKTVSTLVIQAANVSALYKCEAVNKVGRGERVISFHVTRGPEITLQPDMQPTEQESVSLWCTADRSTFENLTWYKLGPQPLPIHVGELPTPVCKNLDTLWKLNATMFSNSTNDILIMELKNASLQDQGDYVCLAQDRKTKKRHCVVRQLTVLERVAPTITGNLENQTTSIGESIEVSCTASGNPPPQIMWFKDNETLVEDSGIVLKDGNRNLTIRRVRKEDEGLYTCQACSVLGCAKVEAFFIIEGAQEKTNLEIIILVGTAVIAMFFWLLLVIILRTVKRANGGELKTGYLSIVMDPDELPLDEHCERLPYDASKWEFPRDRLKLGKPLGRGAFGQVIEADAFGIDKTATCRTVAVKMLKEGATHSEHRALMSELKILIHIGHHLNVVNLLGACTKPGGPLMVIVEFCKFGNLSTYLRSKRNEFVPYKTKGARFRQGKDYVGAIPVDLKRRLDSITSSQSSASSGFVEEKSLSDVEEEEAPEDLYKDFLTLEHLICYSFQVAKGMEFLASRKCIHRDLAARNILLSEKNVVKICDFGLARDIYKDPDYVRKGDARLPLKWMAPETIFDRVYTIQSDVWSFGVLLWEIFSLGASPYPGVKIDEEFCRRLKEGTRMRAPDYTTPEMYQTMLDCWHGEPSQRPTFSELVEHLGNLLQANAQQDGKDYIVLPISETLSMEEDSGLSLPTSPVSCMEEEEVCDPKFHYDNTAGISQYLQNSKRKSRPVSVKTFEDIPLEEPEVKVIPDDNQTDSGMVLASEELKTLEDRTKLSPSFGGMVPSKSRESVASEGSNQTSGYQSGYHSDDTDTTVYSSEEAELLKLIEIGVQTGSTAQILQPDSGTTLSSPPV

Regarding `Cc1cccc(NC(=O)Nc2ccc(-c3cncc4[nH]nc(N)c34)cc2)c1` [Compound I, 1-[4-(3-Amino-1H-pyrazolo[3,4-c]pyridin-4-yl)-phenyl]-3-m-tolyl-urea], the “Prevention Efficacy” value in test [1] (2 μg/0.1%) is −53.8%. The “Prevention Efficacy” value in test [1] (setting [8]) was 37.6%. Further, in test [2], the “Efficacy (0.1%)” value was determined as 65.4%*, the “Efficacy (1%)” value amounted to 88.9%*, the “ED50 (nmole)” value is recorded as 4.04^ nmole and the “ED50 (μg)” value was found to be 1.447 µg. The Potency in test [2] is 1.2*. The 50% effective concentration (EC50) in test [3] is 0.16 nM. In addition, in test [4], the “ED50 (nmole)” value turned out to be 13.44 nmol, the “ED50 (μg)” value amounted to 4.82 µg, the Potency is 5.75 and the “Efficacy (0.1%) Median-value” is given as 100%*. The “Efficacy (1%) Median-value” in test [4] amounted to 100%*. Besides, in test [5], the “ED50 (nmole)” value came out at 25.47 nmol, the “ED50 (μg)” value came to 9.13 µg and the Potency worked out at 2.26.
Turning to `Cc1cccc(NC(=O)Nc2ccc(-c3csc4ncnc(N)c34)cc2)c1` [Compound II, 1-[4-(4-Amino-thieno[2,3-d]pyrimidin-5-yl)-phenyl]-3-m-tolyl-urea], the “Prevention Efficacy” value in test [1] (2 μg/0.1%) is recorded as 2 μg/0.1% = 40.6%. Moreover, in test [1] (setting [8]), the “Prevention Efficacy” value was 20 μg/1.0% = 69.0%*. Also, in test [2], the “Efficacy (0.1%)” value was 85.2%*, the “Efficacy (1%)” value is on record as 85.7%*, the “ED50 (nmole)” value is 7.62 nmol and the “ED50 (μg)” value is 2.86 µg. The Potency in test [2] is 0.392*. Also, the “Relative Potency vs Reference” value in test [3] (BREC proliferation, relative to reference standard RTKi) is 14.5 ± 15.1. Besides, the EC50 in test [3] (setting [9]) was found to be 0.11 nM. Further, in test [4], the “ED50 (nmole)” value stood at 12.17 nmol, the “ED50 (μg)” value turned out to be 4.57 µg, the Potency was 6.23 and the “Efficacy (0.1%) Median-value” turned out to be 32.2%. For the same molecule, in test [4], the “Efficacy (1%) Median-value” is 100%*. For the same molecule, in test [5], the “ED50 (nmole)” value is 24.31 nmol, the “ED50 (μg)” value was found to be 9.13 µg and the Potency was 2.3.
`Cc1ccc(F)c(NC(=O)Nc2ncc(-c3cccc4[nH]nc(N)c34)cn2)c1` [IX]: the “VEGF ind BREC prolif EC50” value in test [3] (setting [9]) is “Not Active”. In addition, in test [3], the “activity against VEGF-induced proliferation” value was “completely inactive”. In test [6], the IC50 was greater than 10000 nM and the “activity against KDR” value is “essentially have no activity”.
Taken in the same sequence, the figures for `Nc1n[nH]c2cccc(-c3ccc(NC(=O)Nc4c(Cl)cccc4Cl)cc3)c12` [VIII] were “Not Active”, “completely inactive”, greater than 10000 nM and “essentially have no activity”.

B1: Lucentis: Fab fragment of a humanized monoclonal antibody that binds all isoforms of VEGF-A (antibody, chains of the INN, looked up, V domains shown)
VH: EVQLVESGGGLVQPGGSLRLSCAASGYDFTHYGMNWVRQAPGKGLEWVGWINTYTGEPTYAADFKRRFTFSLDTSKSTAYLQMNSLRAEDTAVYYCAKYPYYYGTSHWYFDVWGQGTLVTVSS
VL: DIQLTQSPSSLSASVGDRVTITCSASQDISNYLNWYQQKPGKAPKVLIYFTSSLHSGVPSRFSGSGSGTDFTLTISSLQPEDFATYYCQQYSTVPWTFGQGTKVEIK
modifications: Fab
B1: the “treated patients with maintained best-corrected visual acuity (BCVA)” value in test [7] was 95%.
